The results in this text go back to patent US11213506B2, “Combination therapy for the treatment or prevention of tumours” (QBIOTICS PTY LTD, priority 2017, dated 2022).

Assay [1] deals with A431 cells. Nature of the assay: HMGB1 release assay (ELISA). It counts as cell-based, human. The settings on record: within 120 minutes. As for the experimental part:
(§1) A431 (human epidermoid carcinoma), MM649 (human melanoma) and B16-OVA (B16-F10 mouse melanoma cell line stably transfected with chicken ovalbumin) were cultured in RPMI-1640, 10% FCS (complete medium) at 37° C., 5% CO2 in a humidified incubator. BMDCs were cultured in R10 media (RPMI, 10% FCS, 2 mM glutamine, 50 μM beta-mercaptoethanol, Pen/Strep). All cell lines used in this study were confirmed as mycoplasma negative using MycoAlert (Lonza). STR profiling was also performed to confirm the identity of the human cell lines used.
(§2) Cell lines (A431, MM649 and B16-OVA) were plated into T75 cm^2 flasks (Nunc) in 10 ml of complete media and cultured at 37° C., 5% CO2 until they reached 90% confluency. Compounds 1, 2, 3 and 4 were diluted in 5 ml of identical media to a final concentration of 500 and 300 μM and then administered to the cells. Several flasks were prepared such that a kinetic curve of HMGB1 release in response to drug treatment could be established. Ethanol only controls were also generated. At the required timepoint, media was removed from the flask into a 10 ml polypropylene tube that was placed on ice for 5 mins. […] OD450 nm values were determined using a Hybrid Synergy H4 plate reader (BioTek). Absorbance values from drug treated samples were normalized to vehicle treated samples to determine the fold increase in HMGB1 release in response to epoxytigliane treatment.
For orientation: In an ELISA, binding on a coated surface is turned into a signal by an enzyme label.

Assay [2] has as its system MM649 cells. Nature of the assay: HMGB1 release assay (ELISA). It counts as cell-based, human. Conditions: within 120 minutes. As for the experimental part:
as §1, §2

In assay [3] the test system is B16-OVA cells. The experiment in a line: HMGB1 release assay (ELISA). It counts as cell-based, mouse. The settings on record: 120 minutes. As for the experimental part: as §1, §2
The subject of assay [4] is A431 cells. The experiment in a line: Calreticulin externalization assay (flow cytometry). It counts as cell-based, human. The settings on record: within 60 minutes of treatment. As for the experimental part: (§3) Calreticulin externalization was determined as previously detailed (Gomez-Cadena et al. 2016). Briefly, cells (A431, MM649, B16-OVA) cultured in complete medium at 37° C., 5% CO2 were detached via trypsinisation, centrifuged at 1,200 rpm and washed ×2 with fresh medium. After an additional round of centrifugation, the resultant cell pellet was resuspended at a concentration of 1×10^6 cells/ml, after which epoxytigliane was added to a final concentration of 500 or 300 μM. Ethanol only controls were also performed. Cell suspensions were incubated at 37° C., 5% CO2 and at the indicated timepoints, 200 μl of sample was removed and incubated with LIVE/DEAD fixable far red stain for 5 mins on ice. Following this, cells were pelleted at 1,200 rpm for 4 mins and washed ×1 with PBS. 500 μl of PBS, 0.25% formaldehyde was then added to each pellet to perform a light fixation without compromising plasma membrane integrity. […]
(§4) Samples were gated by FSC-H v FSC-A first to identify single cells, after which the LIVE/DEAD stain (Ex: 640 nm, Em: 670/14) negative (intact cell) population was analysed for green fluorescence (Ex: 488 nm, Em: 530/30; calreticulin externalization). Mean fluorescence intensity values were subsequently determined and graphed versus time.

In assay [5] the test system is MM649 cells. The assay is described as above. It counts as cell-based, human. The settings on record: within 60 minutes of treatment. As for the experimental part:
as §3, §4

The subject of assay [6] is CD11c+ BMDCs with B16-OVA cells. The experiment in a line: BMDC uptake of epoxytigliane treated B16-OVA cells. It counts as cell-based, C57Bl/6 mice. As for the experimental part:
The tibias and […] from four 7-8 week old C57Bl/6 mice were first surgically removed under sterile conditions. The marrow was flushed from the bone cavity with 10 ml of ice cold R10 media (using a 27G needle/syringe into a 50 ml polypropylene tube). Cells were pelleted at 1,500 rpm for 5 mins and washed ×2 with ice cold R10 media. After resuspension of the pellet into 10 ml of ice cold R10 medium, cells were counted using an improved haemocytometer and plated at a density of 2×10^6 cells per plate (petri dish) in 10 ml of R10 supplemented with 20 ng/ml murine GM-CSF. All plates were incubated at 37° C., 5% CO2 and at day 3 an additional 10 ml R10 with 20 ng/ml GM-CSF was added. Cells were again fed at day 6 and used for downstream assays on day 7.
Prior to co-incubation with BMDCs, B16-OVA cells were trypsinised, centrifuged at 1,200 rpm for 4 mins to pellet cells and washed ×2 with complete medium. Cells were then stained with 2 μM Cell Tracker Green in complete medium for 45 mins, after which they were pelleted and washed ×2 as above. Labelled B16-OVA cells were subsequently treated with Compounds 1, 2, 3 and 4 at two concentrations (500 or 300 μM) in media at a density of 1×10^6 cells/ml for 30 and 60 mins, after which cells were pelleted via centrifugation, supernatant removed via aspiration and the cell pellet washed ×1 with complete media. After the wash, the treated cells were resuspended in R10 media, inserted into the wells of a 6-well plate (Corning, #3471. Ultra low attachment surface) and BMDCs added. Co-cultures were incubated for 4 h after which cell suspensions were transferred to a microfuge tube and centrifuged at 1,500 rpm for 5 mins. Pellets were resuspended in 100 μl FACs buffer containing anti-CD11c-APC and incubated for 10 mins at 4° C. Cells were again pelleted, washed ×1 with FACs buffer and then fixed using PBS, 1% formaldehyde for 10 mins. After centrifugation and removal of the supernatant, cells were resuspended in 500 μl FACs buffer in preparation for flow cytometry.
Samples were first gated by FSC-H v FSC-A, then SSC-H v SS-A to identify single cells. The proportion of CD11c^+ cells (Ex: 640 nm, Em: 670/14) with CMFDAmid (Ex: 488 nm, Em: 530/30) were then determined for treated and untreated cells as a percentage of all CD11c^+ cells.

On to `C/C=C(\C)C(=O)O[C@@H]1[C@@H](C)[C@@]2(O)[C@H]([C@@H]3C(C)(C)[C@]13OC(=O)[C@@H](C)CC)[C@@H]1O[C@]1(CO)[C@@H](O)[C@]1(O)C(=O)C(C)=C[C@H]12` [Compound 1, 12-tigloyl-13-(2-methylbutanoyl)-6,7-epoxy-4,5,9,12,13,20-hexahydroxy-1-tiglien-3-one], for which the “increase in HMBG1 release, normalised to vehicle treated cells” value in assay [1] and in assay [2] was “up to 40%” throughout. Also, in assay [3], the “fold increase in HMBG1 release, normalised to vehicle treated cells” value is recorded as “greater than 3 fold”. Besides, the “calreticulin externalisation (mean fluorescence intensity)” value in assay [4] and in assay [5] was “significant increases in mean fluorescence intensity” in each case. Besides, the “dependence of antigen uptake on concentration and treatment time” value in assay [6] (500 μM compared to the use of 300 μM) is recorded as “antigen uptake occurs to a greater extent after a shorter treatment time”. The “uptake of dying cancer cell fragments by CD11c+ dendritic cells/macrophages (BMDCs)” value in assay [6] (B16-OVA treated at 500 or 300 μM for 30 and 60 mins, 4 h co-culture) is “promotes the uptake”.
